In patent US20230282357A1, “ACUTE LIVER PATIENT MANAGEMENT” (MERIDIAN BIOSCIENCE ISRAEL LTD., priority 2020, published 2023):
Like-named read-outs stand apart in the source and are kept apart here.

Legend:
[1] = target: T1, CYP1A2 metabolism (Homo sapiens, UniProt P05177); conditions: in vivo
T1 sequence (P05177 1-516): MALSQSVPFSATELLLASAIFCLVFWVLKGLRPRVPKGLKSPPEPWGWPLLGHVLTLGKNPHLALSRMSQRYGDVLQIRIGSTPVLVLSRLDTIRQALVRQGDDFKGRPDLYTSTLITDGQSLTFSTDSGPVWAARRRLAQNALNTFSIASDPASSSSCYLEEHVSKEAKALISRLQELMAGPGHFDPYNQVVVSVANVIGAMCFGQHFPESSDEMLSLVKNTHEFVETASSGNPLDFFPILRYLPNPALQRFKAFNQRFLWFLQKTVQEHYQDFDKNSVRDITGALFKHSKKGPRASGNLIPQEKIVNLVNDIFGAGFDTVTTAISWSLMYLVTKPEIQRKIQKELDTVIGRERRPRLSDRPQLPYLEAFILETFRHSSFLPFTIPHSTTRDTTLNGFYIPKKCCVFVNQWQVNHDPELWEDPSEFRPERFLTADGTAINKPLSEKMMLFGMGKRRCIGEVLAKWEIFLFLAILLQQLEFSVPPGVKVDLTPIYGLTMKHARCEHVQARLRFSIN
Description: (§1) A ^13C-methacetin breath test (MBT), which assays CYP1A2 metabolism, for assessing functional liver capacity and its changes over time, was utilized to predict transplant-free survival.
(§2) Method: Eligible patients with ALF or non-acetaminophen (APAP) ALI underwent ^13C-MBT at day 1, 2, 3, 5 and 7 after enrollment, unless discharged, transplanted or died. 75 mg of ^13C-methacetin was administered orally or via a nasogastric tube, and exhaled ^13CO2 measured for up to 60 minutes using the BreathID® (Exalenz Bioscience Ltd., Modi’in, Israel). The percent dose recovery (PDR) peak was determined on day 1 or 2 and correlated with 21-day outcome.

[2] = human, in vivo
[3] = target: T1, CYP1A2 metabolism; test: 13C-methacetin breath test (MBT), PDR-peak in ALF/ALI patients
Description: as §1, §2

CC(=O)Nc1ccc(O[13CH3])cc1 [^13C-methacetin]
mean serial PDR-peaks, TFS vs non-TFS [1]: consistently higher | serial PDR peak results [1]: very low PDR-peak during the entire period | de-novo or worsening serum cysteine-APAP protein adduct levels on serial testing [2]: None of the first 20 patients | serious adverse events attributable to test device or substrate [2]: no serious adverse events | AUROC of PDR-peak as predictor of 21-day transplant free survival ([3]; 42 ALF patients, Day 1 or 2 PDR-peak values): 0.82 (95% CI 0.68-0.96) | AUROC of PDR-peak as predictor of 21-day transplant free survival ([3]; 42 ALF patients, combined with the ALFSG prognostic index): 0.93 | AUROC of PDR-peak as predictor of 21-day transplant free survival ([3]; 42 ALF patients, with inclusion of ALF etiology): 0.89 (95% CI 0.79-0.98) | AUROC of PDR-peak as predictor of 21-day transplant free survival ([3]; 56 ALF and ALI patients, day 1 or 2 measures): 0.88 (95% CI 0.79-0.97) | AUROC of PDR-peak as predictor of 21-day transplant free survival ([3]; 56 ALF and ALI patients, with inclusion of the etiology of ALI/ALF): 0.92 (95% CI 0.85-0.99) | serial PDR peak results ([3]; ALF DILI patient who survived without transplant, FIG. 6): improved from day 2 through day 7 | day 1 or 2 mean PDR-peak ([3]; transplant-free survivors (TFS), 75 mg orally or via nasogastric tube, exhaled 13CO2 up to 60 minutes): 9.2 %/h
